Source: the supplement of paper PMC10307832

Key:
Test in all cases: relative viability (nuclei count vs DMSO), 5 days (fraction); higher = more cells survive
[1] = compound: C1=CC=C(C(=C1)C2=CC=C(C=C2)C3=CSC4=C3C(=C(C(=O)N4)C#N)O)O + NC(=O)Nc1cc(-c2cccc(F)c2)sc1C(=O)N[C@H]1CCCNC1 [AZD7762] (partner 0.2 µM)
Outline: (§1)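 The day after seeding in 1536-well plates, lung cancer cell lines were treated by pin tool with a single drug, or with a fixed anchor-drug dose together with five library-drug doses (not always all listed) in √10 steps. After 5 days, a combined fix-and-stain solution (final 0.05% Triton X-100, 1% formaldehyde, 1 ug/ml Hoechst) was added. Nuclei counted on 4× images gave relative viability as treated counts over vehicle counts, reported as the median of duplicate plates.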

[2] = compound: O=C(CCCCCCNC(=O)c1cnc(N(c2ccccc2)c2ccccc2)nc1)NO [Ricolinostat] + CC(=O)c1c(C)c2cnc(Nc3ccc(N4CCNCC4)cn3)nc2n(C2CCCC2)c1=O [Palbociclib] (partner 0.5 µM)
Outline: as §1

TGX 221 + Palbociclib = compound: CC1=CN2C(=O)C=C(N=C2C(=C1)C(C)NC3=CC=CC=C3)N4CCOCC4 [TGX 221] + CC(=O)c1c(C)c2cnc(Nc3ccc(N4CCNCC4)cn3)nc2n(C2CCCC2)c1=O [Palbociclib] (partner 0.5 µM)
Outline: as §1

[3] = compound: C1=CC=C(C(=C1)C2=CC=C(C=C2)C3=CSC4=C3C(=C(C(=O)N4)C#N)O)O + CC1(C)CCC(c2ccc(Cl)cc2)=C(CN2CCN(c3ccc(C(=O)NS(=O)(=O)c4ccc(N[C@H](CCN5CCOCC5)CSc5ccccc5)c(S(=O)(=O)C(F)(F)F)c4)cc3)CC2)C1 [Navitoclax] (partner 0.5 µM)
Outline: as §1

Row | Cell Line | relative viability ([1]; first compound 0.08 µM) | relative viability ([1]; first compound 0.253 µM) | relative viability ([1]; first compound 0.8 µM) | relative viability ([1]; first compound 2.53 µM) | relative viability ([1]; first compound 8 µM) | relative viability ([2]; first compound 0.08 µM) | relative viability ([2]; first compound 0.253 µM) | relative viability ([2]; first compound 0.8 µM) | relative viability ([2]; first compound 2.53 µM) | relative viability (TGX 221 + Palbociclib; first compound 0.08 µM) | relative viability (TGX 221 + Palbociclib; first compound 0.253 µM) | relative viability (TGX 221 + Palbociclib; first compound 0.8 µM) | relative viability (TGX 221 + Palbociclib; first compound 2.53 µM) | relative viability (TGX 221 + Palbociclib; first compound 8 µM) | relative viability ([3]; first compound 0.08 µM) | relative viability ([3]; first compound 0.253 µM) | relative viability ([3]; first compound 0.8 µM) | relative viability ([3]; first compound 2.53 µM) | relative viability ([3]; first compound 8 µM)
1 | NCI-H2342 | 0.432 | 0.536 | 0.446 | 0.474 | 0.358 | 0.555 | 0.473 | 0.509 | 0.577 | 0.541 | 0.529 | 0.492 | 0.517 | 0.531 | – | – | – | – | –
2 | SK-LU-1 | – | – | – | – | – | 0.4 | 0.377 | 0.377 | 0.366 | 0.342 | 0.359 | 0.357 | 0.379 | 0.317 | 0.891 | 0.799 | 0.946 | 0.898 | 0.742
3 | NCI-H2023 | – | – | – | – | – | 0.415 | 0.328 | 0.42 | 0.397 | 0.328 | 0.337 | 0.269 | 0.342 | 0.212 | 0.891 | 0.89 | 0.953 | 1.03 | 1.16
4 | NCI-H1299 | – | – | – | – | – | – | – | – | – | – | – | – | – | – | 1.12 | 1.02 | 1.04 | 1.1 | 1.07
5 | LCLC-103H | 0.737 | 0.731 | 0.803 | 0.728 | 0.743 | 0.472 | 0.413 | 0.495 | 0.514 | 0.472 | 0.471 | 0.469 | 0.424 | 0.495 | – | – | – | – | –
6 | SW 1573 | – | – | – | – | – | 0.387 | 0.434 | 0.337 | 0.357 | 0.299 | 0.313 | 0.39 | 0.341 | 0.343 | 0.965 | 0.902 | 0.901 | 0.976 | 0.784
7 | COR-L 105 | – | – | – | – | – | 0.401 | 0.396 | 0.387 | 0.476 | 0.417 | 0.4 | 0.332 | 0.473 | 0.41 | 0.951 | 0.776 | 0.829 | 0.704 | 0.784
8 | NCI-H661 | – | – | – | – | – | 0.426 | 0.381 | 0.415 | 0.364 | 0.427 | 0.43 | 0.396 | 0.406 | 0.376 | – | – | – | – | –
9 | COR-L23 | – | – | – | – | – | 0.261 | 0.227 | 0.203 | 0.156 | 0.247 | 0.278 | 0.305 | 0.3 | 0.284 | 1.09 | 0.983 | 1.21 | 1.06 | 0.762
10 | SK-MES-1 | – | – | – | – | – | 0.369 | 0.308 | 0.339 | 0.397 | 0.304 | 0.336 | 0.308 | 0.287 | 0.323 | 1.34 | 1.34 | 1.3 | 1.14 | 1
11 | NCI-H2009 | – | – | – | – | – | 0.164 | 0.202 | 0.222 | 0.296 | 0.216 | 0.191 | 0.118 | 0.175 | 0.166 | 1.06 | 1.08 | 1.21 | 1.17 | 1.09
12 | NCI-H1650 | – | – | – | – | – | 0.322 | 0.294 | 0.344 | 0.275 | 0.305 | 0.298 | 0.294 | 0.257 | 0.191 | – | 1.25 | 1.23 | 1.15 | 0.865
13 | NCI-H650 | 0.911 | 1.04 | 1.17 | 1.02 | 0.817 | 0.33 | 0.356 | 0.32 | 0.253 | 0.303 | 0.294 | 0.307 | 0.32 | 0.273 | – | – | – | – | –
14 | NCI-H1703 | 0.113 | 0.147 | 0.111 | 0.15 | 0.148 | – | – | – | – | – | – | – | – | – | 0.989 | 1.04 | 1.2 | 0.93 | 0.962
15 | UMC-11 | – | – | – | – | – | 0.368 | 0.338 | 0.339 | 0.295 | 0.299 | 0.328 | 0.306 | 0.338 | 0.374 | 0.321 | 0.301 | 0.321 | 0.314 | 0.318
16 | NCI-H2228 | – | – | – | – | – | 0.874 | 0.895 | 0.9 | 0.504 | 0.692 | 0.689 | 0.989 | 0.675 | 0.719 | 1 | 1.12 | 0.828 | 1.12 | 0.848
17 | SW 900 | – | 0.625 | 0.607 | 0.692 | 0.563 | 0.432 | 0.481 | 0.453 | 0.487 | – | 0.429 | 0.427 | 0.356 | 0.295 | – | – | – | – | –
18 | NCI-H358 | 0.486 | 0.542 | 0.532 | 0.605 | 0.488 | 0.151 | 0.147 | 0.173 | 0.165 | 0.116 | 0.118 | 0.149 | 0.116 | 0.125 | – | – | – | – | –
19 | NCI-H596 | 0.862 | 1.09 | 1.21 | 1.18 | 0.986 | – | – | – | – | – | – | – | – | – | 0.791 | 1.32 | 0.955 | 0.951 | 0.787
20 | Calu-6 | – | – | – | – | – | – | – | – | – | – | – | – | – | – | 0.831 | 0.981 | 1.03 | 0.843 | 0.785
21 | NCI-H520 | – | – | – | – | – | – | 0.256 | 0.262 | 0.27 | 0.156 | 0.139 | 0.146 | 0.166 | 0.132 | 1.08 | 1.15 | 1.2 | 1.11 | 0.891
22 | EBC-1 | – | – | – | – | – | – | – | – | – | – | – | – | – | – | 0.353 | 0.371 | 0.425 | 0.37 | 0.348
23 | NCI-H522 | 0.802 | 0.871 | 0.869 | 0.898 | 0.772 | 1.14 | 1.18 | 1.08 | 1.21 | 0.941 | 1.01 | 0.929 | 0.944 | 0.815 | – | – | – | – | –
24 | A549 | – | – | – | – | – | – | – | – | – | – | – | – | – | – | 1.37 | 1.44 | 1.28 | 1.28 | 1.04
25 | IA-LM | – | – | – | – | – | – | – | – | – | – | – | – | – | – | 0.696 | 1.06 | 0.76 | 0.797 | 0.399
